Measurements from patent US20170334899A1, “AMINO-SUBSTITUTED ISOTHIAZOLES” (Bayer Pharma Aktiengesellschaft, priority 2014, published 2017).

Biological target: T1, catalytic domain of human Bub1 (amino acids 704-1085) (Homo sapiens, UniProt O43683)
T1 construct: catalytic domain of human Bub1 (amino acids 704-1085); His6 (N); made in house; host or cells: insect cells (Hi5)
Experiment: Bub1 kinase assay (TR-FRET)
Assay type: biochemical
Conditions: 10 μM ATP, avg, read-out: Bub1 avg (IC50 [mol/l])
Summary of the method: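 Readout is the 665/620 nm TR-FRET ratio from anti-phosphoserine antibody, Eu-labelled anti-mouse IgG and streptavidin-XL665, scaled between no-enzyme and uninhibited controls. Reaction: 1 μM biotinylated peptide, 10 μM ATP, 60 min, 22 °C, after 15 min compound preincubation with His6-Bub1 (704-1085, insect-expressed, ~200 ng/ml).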

T1 sequence (O43683 704-1085): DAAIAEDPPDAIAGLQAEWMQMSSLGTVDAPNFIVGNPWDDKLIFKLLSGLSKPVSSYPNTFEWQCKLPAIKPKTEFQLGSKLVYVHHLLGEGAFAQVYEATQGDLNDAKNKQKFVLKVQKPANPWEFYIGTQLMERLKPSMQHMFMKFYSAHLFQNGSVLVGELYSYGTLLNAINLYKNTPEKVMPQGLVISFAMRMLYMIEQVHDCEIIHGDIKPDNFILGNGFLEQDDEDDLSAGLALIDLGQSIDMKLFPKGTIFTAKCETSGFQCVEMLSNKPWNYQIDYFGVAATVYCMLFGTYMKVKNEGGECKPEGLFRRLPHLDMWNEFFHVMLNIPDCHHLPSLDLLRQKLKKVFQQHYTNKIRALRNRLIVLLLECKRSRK

IC50 [µM]	SMILES
> 20	Cc1nsc(Nc2cnc(C(F)(F)F)cn2)c1C(=O)Nc1ccc(O[C@H]2CCN(CC(F)(F)F)C[C@@H]2F)nc1 [Example 363, N-(6-{[(3S,4S)-3-fluoro-1-(2,2,2-trifluoroethyl)piperidin-4-yl]oxy}pyridin-3-yl)-3-methyl-5-{[5-(trifluoromethyl)pyrazin-2-yl]amino}-1,2-thiazole-4-carboxamide]
≥ 20	Cc1nsc(Nc2cnc(C(F)(F)F)cn2)c1C(=O)Nc1ccc(F)c(OCC2CCCN(CC(F)(F)F)C2)c1 (stereo not shown) [Example 337, N-(4-fluoro-3-{[1-(2,2,2-trifluoroethyl)piperidin-3-yl]methoxy}phenyl)-3-methyl-5-{[5-(trifluoromethyl)pyrazin-2-yl]amino}-1,2-thiazole-4-carboxamide]
> 20	Cc1nsc(Nc2cnc(C(F)(F)F)cn2)c1C(=O)Nc1ccc(N2CCN(CC(F)F)CC2)cn1 [Example 372, N-{5-[4-(2,2-difluoroethyl)piperazin-1-yl]pyridin-2-yl}-3-methyl-5-{[5-(trifluoromethyl)pyrazin-2-yl]amino}-1,2-thiazole-4-carboxamide]
> 20	Cc1nsc(Nc2cnc(C(F)(F)F)cn2)c1C(=O)Nc1ccc(N2CCN(CCC(F)(F)F)CC2)cn1 [Example 374, 3-methyl-5-{[5-(trifluoromethyl)pyrazin-2-yl]amino}-N-{5-[4-(3,3,3-trifluoropropyl)piperazin-1-yl]pyridin-2-yl}-1,2-thiazole-4-carboxamide]
